{"source": "patent US20230330060A1", "about": "“COMPOUNDS FOR TREATMENT OF HEART FAILURE” (Sulfateq B.V., priority 2020, published 2023)", "key": {"[1]": {"tested_on": "doxorubicin-induced heart failure", "experiment": "Cardiac fibrosis (picrosirius red, left-ventricular interstitial fibrosis)", "assay_type": "in vivo, rat", "conditions": "doxorubicin rats; SUL-150 via food pellets, prophylaxis or therapeutic group", "protocol": "The SUL-150 solution was sprayed homogeneously over standard food pellets (1.25 kg). […] Food pellets were freshly prepared weekly. With the approximation of 200 mg·kg^-1 SUL-150 in the food pellets and a daily dietary intake of 25 gram for a 350 gram rat, daily dosing of SUL-150 approximates 5 mg·day^-1. Male outbred Wistar rats of 250-300 grams (10-12 weeks old) were kept on a 12 h light/dark cycle and received a standard diet with distilled water ad libitum. Thirty rats were administered with doxorubicin (2 mg·kg^-1) weekly via intraperitoneal injection for 9 consecutive weeks and were left either untreated (standard chow diet, 10 rats), or received a diet supplemented with SUL-150 as prophylaxis (prior to the 1st doxorubicin administration, 10 rats) or therapy (starting after the 6th doxorubicin administration, 10 rats). Sham control rats (8 rats) were administered with saline weekly via intraperitoneal injection for 9 consecutive weeks and received a standard diet. All rats were subjected to cardiac function assessment 12 weeks after the first doxorubicin administration. […] Samples were imaged on a NanoZoomer S60 Digital slide scanner (Hammamatsu Photonics) and left-ventricular interstitial fibrosis (i.e. non-perivascular fibrosis) was quantified using Aperio ImageScope (Leica Biosystems, Nussloch, Germany)."}, "[2]": {"tested_on": "doxorubicin-induced heart failure", "experiment": "Cardiac function assessment by PV-loop analysis in rats with doxorubicin-induced heart failure", "assay_type": "in vivo, rat", "conditions": "for ESP (End-systolic pressure): doxorubicin 2 mg/kg weekly i.p. x9, mean±S.D.; for ESP (End-systolic pressure) / Contractility efficiency / EDP (end-diastolic pressure) / EDV (end-diastolic volume) / ESV (end-systolic volume) / Ea (Arterial elastance) / Ees (ESPVR) end-systolic elastance / Emax (EDPVR) maximal elastance / PRSW (preload recruitable stroke work) / SV (stroke volume) / Tau (time constant of LV pressure decay) / dP/dTmax / dP/dTmin: 12 weeks; for Contractility efficiency / EDP (end-diastolic pressure) / EDV (end-diastolic volume) / ESV (end-systolic volume) / Ea (Arterial elastance) / Ees (ESPVR) end-systolic elastance / Emax (EDPVR) maximal elastance / PRSW (preload recruitable stroke work) / SV (stroke volume) / Tau (time constant of LV pressure decay) / dP/dTmax / dP/dTmin / Cardiac function (heart rate, ejection fraction, stroke work, cardiac output), FIG. 1: doxorubicin rats; for Contractility efficiency / EDP (end-diastolic pressure) / EDV (end-diastolic volume) / ESV (end-systolic volume) / Ea (Arterial elastance) / Ees (ESPVR) end-systolic elastance / Emax (EDPVR) maximal elastance / PRSW (preload recruitable stroke work) / SV (stroke volume) / Tau (time constant of LV pressure decay) / dP/dTmax / dP/dTmin: SUL-150 diet; for Cardiac function (heart rate, ejection fraction, stroke work, cardiac output), FIG. 1: p<0.05 vs doxorubicin group", "protocol": "The effectiveness of the compounds according to the invention for treatment or prophylaxis of HFrEF was tested in vivo in rats. Doxorubicin, an anthracycline antibiotic used in cancer chemotherapy, was employed to induce heart failure with reduced ejection fraction in preclinical rat models (Christiansen et al. (2006) Eur. J. Cardiothorac. Surg. 30:611-616; Ertunc et al. (2009) Pharmacology 84:240-248; Hayward et al. (2007) J. Am. Ass. Lab. Animal Sci. 46:20-32). […] The SUL-150 solution was sprayed homogeneously over standard food pellets (1.25 kg). […] Food pellets were freshly prepared weekly. With the approximation of 200 mg/kg SUL-150 in the food pellets and a daily dietary intake of 25 gram for a 350 gram rat, daily dosing of SUL-150 approximates 5 mg per day. Male outbred Wistar rats of 250-300 grams (10-12 weeks old) were kept on a 12h light/dark cycle and received a standard diet with distilled water ad libitum. Thirty rats were administered with doxorubicin (2 mg/kg) weekly via intraperitoneal injection for 9 consecutive weeks and were left either untreated (standard chow diet, 10 rats), or received a diet supplemented with SUL-150 as prophylaxis (prior to the 1st doxorubicin administration, 10 rats) or therapy (starting after the 6th doxorubicin administration, 10 rats). Sham control rats (8 rats) were administered with saline weekly via intraperitoneal injection for 9 consecutive weeks and received a standard diet. All rats were subjected to cardiac function assessment 12 weeks after the first doxorubicin administration. Cardiac function tests (PV-Loop assessment) were performed under anaesthesia (isoflurane in O2 (FiO2 100%)) followed by orotracheal intubation. The rats were placed in a mechanical rodent ventilator (Harvard Apparatus, Holliston, Massachusetts) with tidal volume of 10 mL/kg and 70 breaths per minute. A small window was opened below the sternum and with a small incision a 2F microtip pressure-conductance catheter (SPR-838; Millar Instruments, Houston, Tx) was inserted directly on the left ventricle (LV) through the apex. After stabilization, signals were recorded with a pressure-volume conductance System ([…]-Ultra, Millar Instruments, Houston, Tx) connected to a data acquisition system (PowerLab, AD Instruments, Colorado Springs, Co). […] Volume calibration was performed with fresh heparinized warm blood from each animal. Also, […] of 7.5% hypertonic saline was injected at the end of each experiment for the parallel conductance volume calibration. Data is analysed in GraphPad Prism 8.0 (GraphPad Software Inc, Ca). All results are expressed as mean±S.D. (standard deviation) or median and interquartile interval. The difference between groups was assessed by ANOVA followed by pairwise comparisons to the sham and vehicle treatment groups with p-values adjusted for multiple comparisons using FDR correction."}, "[3]": {"tested_on": "mitochondrial complex IV (cytochrome c oxidase)", "experiment": "Respiratory complex IV activity in mitochondria isolated from H9C2 cardiomyoblasts", "assay_type": "cell-based, rat", "protocol": "H9C2 cardiomyoblasts were exposed to 1 μM DOX in the presence or absence of 1 μM SUL-150 under standard cell culture conditions for 24 h. Mitochondria were isolated using density gradient centrifugation using the MitoCheck® Mitochondrial Isolation Kit (Cayman Chemical #701010, Ann Arbor, MI) according to manufacturer's instructions and assessed for the activity of mitochondrial complex IV (cytochrome c oxidase) by measuring the rate of oxidation of cytochrome c, which is reflected by an […] in absorbance at 550 nm (Cayman Chemical #700990, Ann Arbor, MI)."}, "[4]": {"conditions": "therapeutic (after 6th doxorubicin)"}}}
{"molecule": "Cc1c(C)c2c(c(C)c1O)CC[C@](C)(C(=O)N1CCNCC1)O2", "note": "[SUL-150, (R)-(6-hydroxy-2,5,7,8-tetramethylchroman-2-yl)(piperazin-1-yl)methanone]", "values": [{"measurement": "Fibrogenic response in the left ventricle interstitium (collagen deposition), FIG. 4", "setting": "[1]", "result": "blocks this fibrogenic reaction"}, {"measurement": "ESP (End-systolic pressure)", "setting": "[2]; SUL-150 in diet (approx. 5 mg per day) as prophylaxis, prior to 1st doxorubicin", "result": "104.4 ± 12.3", "unit": "mmHg"}, {"measurement": "ESP (End-systolic pressure)", "setting": "[2]; SUL-150 in diet (approx. 5 mg per day) as therapy, after 6th doxorubicin", "result": "114.3 ± 18.4", "unit": "mmHg"}, {"measurement": "Contractility efficiency", "setting": "[2]; prophylaxis", "result": "53.0 ± 16.4", "unit": "%"}, {"measurement": "EDP (end-diastolic pressure)", "setting": "[2]; prophylaxis", "result": "8.1 ± 3.0", "unit": "mmHg"}, {"measurement": "EDV (end-diastolic volume)", "setting": "[2]; prophylaxis", "result": "325.0 ± 144^ μl"}, {"measurement": "ESV (end-systolic volume)", "setting": "[2]; prophylaxis", "result": "175.3 ± 107^ μl"}, {"measurement": "Ea (Arterial elastance)", "setting": "[2]; prophylaxis", "result": "0.7 ± 0.2", "unit": "mmHg · μl−1"}, {"measurement": "Ees (ESPVR) end-systolic elastance", "setting": "[2]; prophylaxis", "result": "0.7 ± 0.6", "unit": "mmHg · μl−1"}, {"measurement": "Emax (EDPVR) maximal elastance", "setting": "[2]; prophylaxis", "result": "0.04 ± 0.03", "unit": "mmHg · μl−1"}, {"measurement": "PRSW (preload recruitable stroke work)", "setting": "[2]; prophylaxis", "result": "9.9 ± 4.0", "unit": "mmHg · ml−1"}, {"measurement": "SV (stroke volume)", "setting": "[2]; prophylaxis", "result": "149.7 ± 55.† μl"}, {"measurement": "Tau (time constant of LV pressure decay)", "setting": "[2]; prophylaxis", "result": "12.5 ± 3.1"}, {"measurement": "dP/dTmax", "setting": "[2]; prophylaxis", "result": "6144 ± 1782", "unit": "mmHg · s−1"}, {"measurement": "dP/dTmin", "setting": "[2]; prophylaxis", "result": "−5006 ± 1140", "unit": "mmHg · s−1"}, {"measurement": "Contractility efficiency", "setting": "[2]; [4]", "result": "47.1 ± 18.1", "unit": "%"}, {"measurement": "EDP (end-diastolic pressure)", "setting": "[2]; [4]", "result": "7.4 ± 3.7", "unit": "mmHg"}, {"measurement": "EDV (end-diastolic volume)", "setting": "[2]; [4]", "result": "363.1 ± 115^ μl"}, {"measurement": "ESV (end-systolic volume)", "setting": "[2]; [4]", "result": "205.0 ± 96.4", "unit": "µL"}, {"measurement": "Ea (Arterial elastance)", "setting": "[2]; [4]", "result": "0.7 ± 0.2", "unit": "mmHg · μl−1"}, {"measurement": "Ees (ESPVR) end-systolic elastance", "setting": "[2]; [4]", "result": "0.5 ± 0.4", "unit": "mmHg · μl−1"}, {"measurement": "Emax (EDPVR) maximal elastance", "setting": "[2]; [4]", "result": "0.03 ± 0.02", "unit": "mmHg · μl−1"}, {"measurement": "PRSW (preload recruitable stroke work)", "setting": "[2]; [4]", "result": "11.0 ± 3.9", "unit": "mmHg · ml−1"}, {"measurement": "SV (stroke volume)", "setting": "[2]; [4]", "result": "158.1 ± 55.† μl"}, {"measurement": "Tau (time constant of LV pressure decay)", "setting": "[2]; [4]", "result": "13.6 ± 5.2"}, {"measurement": "dP/dTmax", "setting": "[2]; [4]", "result": "6487 ± 1665", "unit": "mmHg · s−1"}, {"measurement": "dP/dTmin", "setting": "[2]; [4]", "result": "−5092 ± 1447", "unit": "mmHg · s−1"}, {"measurement": "Cardiac function (heart rate, ejection fraction, stroke work, cardiac output), FIG. 1", "setting": "[2]; SUL-150 via food pellets after 6 cumulative doxorubicin administrations (therapeutic group)", "result": "substantially improves the cardiac function"}, {"measurement": "Cardiac function (heart rate, ejection fraction, stroke work, cardiac output), FIG. 1", "setting": "[2]; SUL-150 via food pellets prior to doxorubicin (prophylaxis group)", "result": "substantially preserves cardiac function and largely maintains ejection fraction and cardiac output"}, {"measurement": "Respiratory complex IV activity, FIG. 7", "setting": "[3]; H9C2 cardiomyoblasts co-incubated with doxorubicin and SUL-150, both 1 μM for 24 h", "result": "maintains complex IV activity"}, {"measurement": "Respiratory complex IV activity", "setting": "[3]; untreated control H9C2 cardiomyoblasts, SUL-150 1 μM for 24 h", "result": "does not alter the activity of respiratory complex IV"}]}
